From patent US9463188B2, “Osteopontin production inhibitor containing dictyopyrone derivative or dihydrodictyopyrone derivative as active ingredient” (TOHOKU UNIVERSITY, priority 2013, dated 2016)

Tested on: OPN production by human non-small cell lung cancer-derived cell line A549
Assay: OPN production by A549 cells (Human Osteopontin Immunoassay, per mg protein)
Type: cell-based
Settings: 2-day culture
Method: The confirmation test was performed in the following manner. The compound 3 wad added to a culture liquid containing cells of a human non-small cell lung cancer-derived cell line A549 or a human liver cancer-derived cell line HepG2, and the amount of OPN in culture supernatant after 2-day culture was measured using Human Osteopontin Immunoassay kit (R&D systems) and compared with the OPN amount of a compound 3-free group (control group).
The compound 3 has also cell growth inhibitory effect. Therefore, in order to properly evaluate the OPN production-suppressing effect of the compound 3, 1×CCLR used in luciferase assay was added to cells remaining in each well after removal of culture supernatant to prepare a cell lysate, and the amount of protein in the cell lysate was measured using BCA Protein Assay Kit (Thermo Scientific). The influence of addition of the compound 3 on the amount of OPN production was evaluated by comparison of the amount of OPN per milligram of protein.
First, A549 cells or HepG2 cells were suspended in DMEM medium containing 10% FCS and 1% P/S at 4×10^4 cells/mL to obtain a cell suspension, and 500 μL of the cell suspension was dispensed into each well of a 24-well plate. In order to perform the test in triplicate, 3 wells were prepared for a control group and 3 wells were prepared for each test compound-treated group at each concentration. […]

Question: What does the source list for `CCCCCCCCCCCC(=O)[C@H]1C(=O)O[C@@H](C)C[C@@H]1C` [Chemical formula 3]?
Answer: suppression of OPN production vs control group (30 μmol/L, significance level less than 5%): significantly suppressed; suppression of OPN production vs control group (60 μmol/L, significance level less than 1%): significantly suppressed
